Patent EP0571593B1, “NEW NON IONIC IODIZED AGENTS FOR X-RAY CONTRASTING, METHOD FOR PREPARING THEM AND GALENICAL COMPOSITIONS CONTAINING THEM” (CENTRO INVESTIGACION JUSTESA IMAGEN S.A., priority 1991, dated 1993)

Columns and labels:
Format in all cases: physicochemical
[1] = Viscosity of aqueous solutions; conditions: 30°C, 300mg I/ml
[2] = Osmolality of aqueous solutions; conditions: 300mg I/ml
Iodine content = assay: Iodine content

| Compound | Viscosity mPa s (30°C) at 300mg I/ml [1] | Osmolality mosm/kg at 300mg I/ml [2] | % Iodine (Iodine content) |
| --- | --- | --- | --- |
| COCC(=O)Nc1c(I)c(C(=O)NCC(=O)Nc2c(I)c(C(=O)N(C)CC(O)CO)c(I)c(C(=O)N(C)CC(O)CO)c2I)c(I)c(C(=O)NCC(O)CO)c1I (stereo not shown) [EXAMPLE 1, N,N'-bis-(2,3-dihydroxypropyl)-N,N'-dimethyl-5-{3-[N-(2,3-dihydroxypropyl)carbamoyl]-5-methoxyacetamido-2,4,6-triiodobenzoylaminoacetamido}-2,4,6-triiodoisophthalamide] | 7,2 mPa s | 310 mosm/kg | 51,6% |
| CN(CC(O)CO)C(=O)c1c(I)c(NC(=O)CNC(=O)c2c(I)c(NC(=O)CO)c(I)c(C(=O)NCC(O)CO)c2I)c(I)c(C(=O)N(C)CC(O)CO)c1I (stereo not shown) [EXAMPLE 2, N.N'-bis-(2,3-dihydroxypropyl)-N,N'-dimethyl-5-{3-[N-(2,3-dihydroxypropyl)carbamoyl]-5-hydroxyacetamido-2,4,6-triiodobenzoylaminoacetamido}-2,4,6-triiodoisophthalamide] | 8,4 mPa s | 166 mosm/kg | 52% |
| CN(C(=O)CNC(=O)c1c(I)c(NC(=O)CO)c(I)c(C(=O)NCC(O)CO)c1I)c1c(I)c(C(=O)NC(CO)C(O)CO)c(I)c(C(=O)NC(CO)C(O)CO)c1I (stereo not shown) [EXAMPLE 3, N,N'-bis-(1-hydroxymethyl-2,3-dihydroxyprogyl)-5-{3[N-(2,3-dihydroxypropyl)carbamoyl]-5-hydroxyacetamido-2,4,6-triiodobenzoylaminoacetyl-N-methylamino}-2,4,6-triiodoisophthalamide] | 9,3 mPa s | 184 mosm/kg | 50,5% |
| COCC(=O)Nc1c(I)c(C(=O)NCC(=O)N(C)c2c(I)c(C(=O)NC(CO)C(O)CO)c(I)c(C(=O)NC(CO)C(O)CO)c2I)c(I)c(C(=O)NCC(O)CO)c1I (stereo not shown) [EXAMPLE 4, N,N'-bis-(1-hydroxymethyl-2,3-dihydroxypropyl)-5-{3-(N-(2,3-dihydroxypropyl)carbamoyl]-5-methoxyacetamido-2,4,6-triiodobenzoylaminoacetyl-N-methylamino}-2,4,6-triiodo isophthalamide] | 9,4 mPa s | 289 mosm/kg | 50% |
| COCC(=O)Nc1c(I)c(C(=O)NCC(=O)Nc2c(I)c(C(=O)N(C)CC(O)CO)c(I)c(C(=O)N(C)CC(O)CO)c2I)c(I)c(C(=O)NC(CO)C(O)CO)c1I (stereo not shown) [EXAMPLE 5, N,N'-bis-(2,3-dihydroxypropyl)-N,N'-dimethyl-5-{3-[N-(1-hydroxymethyl-2,3-dihydroxypropyl)carbamoyl]-5-methoxyacetamido-2,4,6-triiodobenzoylaminoacetamido}-2,4,6-triiodoisophthalamide] | 10,2 mPa s | 119 mosm/kg | 50,5% |
| COCC(=O)Nc1c(I)c(C(=O)NCC(=O)Nc2c(I)c(C(=O)NCC(O)CO)c(I)c(C(=O)NCC(O)CO)c2I)c(I)c(C(=O)NC(CO)C(O)CO)c1I (stereo not shown) [EXAMPLE 6, N,N'-bis-(2,3-dihydroxypropyl)-5-{3-[N-(1-hydroxymethyl-2,3-dihydroxypropyl)carbamoyl]-5-methoxyacetamido-2,4,6-triiodobenzoylaminoacetamido}-2,4,6-triiodoisochthalamide] | 9,5 mPa s | 116 mosm/kg | 51,5% |
| COCC(=O)Nc1c(I)c(C(=O)NCC(=O)Nc2c(I)c(C(=O)NC(CO)C(O)CO)c(I)c(C(=O)NC(CO)C(O)CO)c2I)c(I)c(C(=O)NC(CO)C(O)CO)c1I (stereo not shown) [EXAMPLE 7, N,N'-bis-(1-hydroxymethyl-2,3-dihydroxypropyl)-5-{3-[N-(1-hydroxymethyl-2,3-dihydroxypropyl)carbamoyl]-5-methoxyacetamido-2,4,6-triiodobenzoylaminoacetamido}-2,4,6-triiodo isophthalamide] | 10,5 mPa s | 147 mosm/kg | 49,5% |
| O=C(CN(CCO)C(=O)c1c(I)c(NC(=O)CO)c(I)c(C(=O)NCC(O)CO)c1I)Nc1c(I)c(C(=O)NCCO)c(I)c(C(=O)NCCO)c1I (stereo not shown) [EXAMPLE 14, N,N'-bis-(2-hydroxyethyl)-5-{3-[N-(2,3-dihydroxypropyl)-carbamoyl]-5-hydroxyacetamido-2,4,6-triiodobenzoyl-N-(2, hydroxyethyl)aminoacetamido}-2,4,6-triiodoisophthalamide] |  |  | 53,7% |
| COCC(=O)Nc1c(I)c(C(=O)NCC(O)CO)c(I)c(C(=O)N(CCO)CC(=O)Nc2c(I)c(C(=O)NCCO)c(I)c(C(=O)NCCO)c2I)c1I (stereo not shown) [EXAMPLE 17, N,N'-bis-(2-hydroxyethyl)-5-{3-[N-(2,3-dihydroxypropyl)carbamoyl]-5-methoxyacetamido-2,4,6-triodobenzoyl-N-(2-hydroxyethyl)aminoacetamido}-2,4,6-triiodoisophthalamide] |  |  | 53,2% |
| O=C(CO)Nc1c(I)c(C(=O)NCC(=O)Nc2c(I)c(C(=O)NCC(O)CO)c(I)c(C(=O)NCC(O)CO)c2I)c(I)c(C(=O)NCC(O)CO)c1I (stereo not shown) [EXAMPLE 18] |  |  | 53,1% |
| O=C(CO)Nc1c(I)c(C(=O)NCC(=O)Nc2c(I)c(C(=O)NC(CO)C(O)CO)c(I)c(C(=O)NC(CO)C(O)CO)c2I)c(I)c(C(=O)NCC(O)CO)c1I (stereo not shown) [EXAMPLE 19, N,N'-bis-(1-hydroxymethyl-2,3-dihydroxypropyl)-5-{3-[N-(2,3-dihydroxypropyl)carbamoyl]-5-hydroxyacetamido-2,4,6-triiodobenzoylaminoacetamido}-2,4,6-triiodoisophthalamide] |  |  | 51% |
| COCC(=O)Nc1c(I)c(C(=O)NCC(=O)Nc2c(I)c(C(=O)NC(CO)C(O)CO)c(I)c(C(=O)NC(CO)C(O)CO)c2I)c(I)c(C(=O)NCC(O)CO)c1I (stereo not shown) [EXAMPLE 20, N,N'-bis-(1-hydroxymethyl-2,3-dihydroxypropyl)-5-{3-[N-(2,3-dihydroxypropyl)carbamoyl]-5-methoxyacetamido-2,4,6-triiodobenzoylaminoacetamido}-2,4,6-triiodoisolphthalamide] |  |  | 50,5% |
| COCC(=O)Nc1c(I)c(C(=O)NCC(O)CO)c(I)c(C(=O)N(C)CC(=O)Nc2c(I)c(C(=O)NC(CO)C(O)CO)c(I)c(C(=O)NC(CO)C(O)CO)c2I)c1I (stereo not shown) [EXAMPLE 21, N,N'-bis-(1-hydroxymethyl-2,3-dihydroxypropyl)-5-{3-[N-(2,3-dihydroxypropyl)carbomoyl]-5-methoxyacetamido-2,4,6-triiodo-benzoyl-N-methylaminoacetamido}-2,4,6-triiodoisophthalamide] |  |  | 50% |
| COCC(=O)Nc1c(I)c(C(=O)NCC(=O)N(C)c2c(I)c(C(=O)N(C)CC(O)CO)c(I)c(C(=O)N(C)CC(O)CO)c2I)c(I)c(C(=O)NCC(O)CO)c1I (stereo not shown) [EXAMPLE 27, N,N'-bis-(2,3-dihydroxypropyl)-N,N'-dimethyl-5-{3-[N-(2,3-dihydroxypropyl)carbamoyl]-5-methoxyacetamido-2,4,6-triiodobenzoylaminoacetyl-N-methylamino}-2,4,6-triiodo isophthalamide] |  |  | 51,1% |
| COCC(=O)Nc1c(I)c(C(=O)NCC(=O)N(C)c2c(I)c(C(=O)NCC(O)CO)c(I)c(C(=O)NCC(O)CO)c2I)c(I)c(C(=O)NCC(O)CO)c1I (stereo not shown) [EXAMPLE 28, N,N'-bis-(2,3-dihydroxypropyl)-5-{3-[N-(2,3-dihydroxypropyl)carbamoyl]-5-methoxyacetamido-2,4,6-triiodobenzoylaminoacetyl-N-methylamino}-2,4,6-triiodoisophthalamide] |  |  | 51,6% |
| CN(CC(=O)N(C)c1c(I)c(C(=O)N(CCO)CCO)c(I)c(C(=O)N(CCO)CCO)c1I)C(=O)c1c(I)c(NC(=O)CO)c(I)c(C(=O)NCC(O)CO)c1I (stereo not shown) [EXAMPLE 29, N,N,N',N'-tetrakis-(2-hydroxyethyl)-5-{3-[N-(2,3-dihydroxypropyl)carbamoyl]-5-hydroxyacetamido-2,4,6-triiodobenzoyl-N-methylaminoacetyl-N-methylamino}-2,4,6-triiodoisophthalamide] |  |  | 51,1% |
| COCC(=O)Nc1c(I)c(C(=O)NCC(O)CO)c(I)c(C(=O)N(C)CC(=O)N(C)c2c(I)c(C(=O)N(CCO)CCO)c(I)c(C(=O)N(CCO)CCO)c2I)c1I (stereo not shown) [EXAMPLE 30, N,N,N',N', -tetrakis-(2-hydroxyethyl)-5-{3-[N-(2,3-dihydroxypropyl)carbamoyl]-5-methoxyacetamido-2,4,6-triiodobenzoyl-N -methylaminoacetyl-N-methylamino}-2,4,6-triiodo-isophthalamide] |  |  | 50,6% |
| COCC(=O)Nc1c(I)c(C(=O)NCC(=O)Nc2c(I)c(C(=O)N(CCO)CCO)c(I)c(C(=O)N(CCO)CCO)c2I)c(I)c(C(=O)NCC(O)CO)c1I (stereo not shown) [EXAMPLE 31, N,N,N',N'-tetrakis(2-hydroxyethyl)-5-{3-[N(2,3-dihydroxypropyl)carbamoyl]-5-methoxyacetamido-2,4,6-triiodobenzoylaminoacetamido}-2,4,6-triiodoisophthalamide] |  |  | 51,6% |
| COCC(=O)N(CCO)c1c(I)c(C(=O)NCC(O)CO)c(I)c(C(=O)N(CCO)CC(=O)N(CCO)c2c(I)c(C(=O)NCC(O)CO)c(I)c(C(=O)NCC(O)CO)c2I)c1I (stereo not shown) [EXAMPLE 33, N,N'-bis-(2,3-dihydroxypropyl)-5-{3-[N-(2,3-dihydroxypropyl)carbamoyl]-5-methoxyacetyl-N-(2-hydroxyethyl)amino-2,4,6-triiodobenzoyl-N-(2-hydroxyethyl)aminoacetyl-N-(2-hydroxyethyl)amino)-2,4,6-triiodoisophthalamide] |  |  | 48,2% |
| O=C(NCC(=O)N(CCO)c1c(I)c(C(=O)NCC(O)CO)c(I)c(C(=O)NCC(O)CO)c1I)c1c(I)c(C(=O)NCC(O)CO)c(I)c(N(CCO)C(=O)CO)c1I (stereo not shown) [EXAMPLE 34, N,N'-bis-(2,3-dihydroxypropyl)-5-{3-[N-(2,3-dihydroxypropyl)carbamoyl]-5-hydroxyacetyl-N-(2-hydroxyethyl)amino-2,4,6-triiodobenzoylaminoacetyl-N-(2-hydroxyethyl)amino}-2,4,6-triiodoisophthalamide] |  |  | 50% |
